Test results: patent US11198692B2, “Dihydro-pyrrolo-pyridine derivatives” (Pfizer Inc., priority 2017, dated 2021)

Biological target: T1, Human M4 receptors (Homo sapiens, UniProt P08173)
T1 construct: expressed in transfected cells
T1 sequence (P08173 1-479): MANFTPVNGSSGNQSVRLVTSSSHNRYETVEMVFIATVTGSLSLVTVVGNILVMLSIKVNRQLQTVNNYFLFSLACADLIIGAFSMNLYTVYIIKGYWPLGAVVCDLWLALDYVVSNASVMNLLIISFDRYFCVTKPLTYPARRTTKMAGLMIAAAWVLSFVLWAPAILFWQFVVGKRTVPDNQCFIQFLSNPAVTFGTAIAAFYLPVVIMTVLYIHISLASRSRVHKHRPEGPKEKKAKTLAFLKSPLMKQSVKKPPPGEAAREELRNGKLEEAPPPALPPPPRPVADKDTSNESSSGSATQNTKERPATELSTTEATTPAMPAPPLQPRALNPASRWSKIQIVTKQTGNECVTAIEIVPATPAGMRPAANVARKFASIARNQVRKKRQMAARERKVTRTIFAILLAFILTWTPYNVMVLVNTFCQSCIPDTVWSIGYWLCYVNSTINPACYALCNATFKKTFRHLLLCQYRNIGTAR
Experiment: M4 PAM cAMP assay (GloSensor)
Assay type: cell-based
Details: HEK293 GloSensor cells expressing hM4, with EC20 acetylcholine and isoproterenol, geometric mean of 2-4 determinations unless footnoted (b: >=5, c: single); for Emax: Emax = maximum asymptote of fitted dose response curve, read-out: EC50 Mean Asymptote Maximum (%)
Experimental: The M4 cAMP assay was designed to determine the potency and efficacy of muscarinic positive allosteric modulators (PAMs). Human M4 receptors were stably expressed in Human embryonic kidney (HEK293) cells expressed with the Promega GloSensor™ cAMP technology.
HEK293 GloSensor cells expressing hM4 cells were cultured in growth media containing DMEM with 10% FBS, 1% Penicillin/Streptomycin, 500 μg/mL G418, 200 μg/mL Hygomycin B, and 1% Glutamax. When cells had grown to 80%-90% confluency, cells were harvested and seeded at a density of 25,000 cells/40 μL well, in a 384 white walled plates (Becton Dickinson 356661). Plates were incubated at 37 degrees C. and 5% CO2 for use after 24 hours.
Compound Preparation for Activator Screen:
Test compounds were initially prepared as 100% DMSO stock solutions, then transferred and serially diluted in 384-well compound plates (Matrix #4325). Each compound was tested at 10 concentrations in duplicate per experiment. Compound plates are spotted with 0.2 μL/well activator at 400 times the final assay concentration. Positive and negative controls for the compound alone activator response was 10 μM acetylcholine (Sigma # A2661) and DMSO, respectively. EC20 of acetylcholine was also used to define PAM activities.
Promega GloSensor™reagent (Promega # E1291) had previously been aliquotted. For each experiment, a stock solution of GloSensor™ was thawed out and equilibration medium was prepared with 88% CO2-independent media (Invitrogen #18045088), 10% fetal bovine serum and 2% GloSensor™ cAMP Reagent stock solution. Stock solution was mixed. Culture media in cell plates was discarded, then replaced with 40 μL/well pre-warmed equilibration media, then incubated in the dark at room temperature for 2 hours. During the incubation, stimulation media containing agonist and EC20 acetylcholine was prepared. CO2-independent media containing 50 […] Isoproterenol representing an EC80 of b-adrenergic receptor activity (Sigma #16504, 400 times final concentration) and EC20 acetylcholine in 1.25% DMSO was added to all columns of the compound plate, with the exception of column 12 to allow for EC0 control. […] Compounds are now 5 times the final assay concentration. The plate was mixed using a plate agitator. At the end of the 2 hour GloSensor™ incubation, add 10 μL of the CO2-independent media containing agonist, EC20 acetylcholine and isoproterenol to the cell plate. Cell plate was then incubated for 10 minutes at room temperature, and then read using an EnVision plate reader (Perkin Elmer).
Data was exported from the EnVision plate reader. The percent effect for each well was determined using the mean values for the positive and negative controls on each plate for each read, specifically 100*(compound−negative control)/(positive control−negative control). Dose response curves were fitted to the compound percent effect data using a 4-parameter logistic fit model. Data was reported as EC50 and Emax, with the Emax as the maximum asymptote of the fitted dose response curve.

Compound | Emax | EC50
Cc1c2c(c(=O)n(C)c1C)CN(C(=O)CC1CN(c3ccnc(C(F)(F)F)c3)C1)C2 [Example 25, 5,6,7-trimethyl-2-({1-[2-(trifluoromethyl)pyridin-4-yl]azetidin-3-yl}acetyl)-1,2,3,5-tetrahydro-4H-pyrrolo[3,4-c]pyridin-4-one] | 98.9% | 8.35 nM
CNc1nc(C)c(C)c2c1CN(C(=O)CC1CN(c3ccnc(C)c3)C1)C2 [Example 35, 1-[6,7-dimethyl-4-(methylamino)-1,3-dihydro-2H-pyrrolo[3,4-c]pyridin-2-yl]-2-[1-(2-methylpyridin-4-yl)azetidin-3-yl]ethanone] | 97.7% | 13.6 nM
Cc1nc(C(F)F)c2c(c1C)CN(C(=O)CC1CN(c3ccnc(C(F)F)c3)C1)C2 [Example 39, 1-[4-(difluoromethyl)-6,7-dimethyl-1,3-dihydro-2H-pyrrolo[3,4-c]pyridin-2-yl]-2-{1-[2-(difluoromethyl)pyridin-4-yl]azetidin-3-yl}ethanone] | 101% | 32 nM
CNc1nc(C)c(C)c2c1CN(C(=O)c1cnn(C)c1)C2 [Example 48, [6,7-dimethyl-4-(methylamino)-1,3-dihydro-2H-pyrrolo[3,4-c]pyridin-2-yl](1-methyl-1H-pyrazol-4-yl)methanone] | 96.8% | 8.46 nM
Cc1ncc2c(c1C)CN(C(=O)CC1CN(c3cccnc3)C1)C2 [Example 52, 1-(6,7-dimethyl-1,3-dihydro-2H-pyrrolo[3,4-c]pyridin-2-yl)-2-[1-(pyridin-3-yl)azetidin-3-yl]ethanone] | 84.5% | 36.1 nM
COc1nc(C)c(C)c2c1CN(C(=O)CC1CN(c3cccnc3)C1)C2 [Example 53, 1-(4-methoxy-6,7-dimethyl-1,3-dihydro-2H-pyrrolo[3,4-c]pyridin-2-yl)-2-[1-(pyridin-3-yl)azetidin-3-yl]ethanone] | 92.1% | 43.8 nM
COc1nc(C)c(C)c2c1CN(C(=O)CC1CN(c3cncnc3)C1)C2 [Example 55, 1-(4-methoxy-6,7-dimethyl-1,3-dihydro-2H-pyrrolo[3,4-c]pyridin-2-yl)-2-[1-(pyrimidin-5-yl)azetidin-3-yl]ethanone] | 96.1% | 78.7 nM
CNc1nc(C)c(C)c2c1CN(C(=O)C1CC1)C2 [Example 58, cyclopropyl[6,7-dimethyl-4-(methylamino)-1,3-dihydro-2H-pyrrolo[3,4-c]pyridin-2-yl]methanone] | 96.2% | 95.2 nM
CNc1nc(C)c(C)c2c1CN(C(=O)[C@@H]1CCOC1)C2 [Example 59, [6,7-dimethyl-4-(methylamino)-1,3-dihydro-2H-pyrrolo[3,4-c]pyridin-2-yl][(3R)-tetrahydrofuran-3-yl]methanone] | 95.5% | 149 nM

Second part, the compound after the results:

Emax | EC50 | Compound
98.2% | 7.27 nM | CNc1nc(C)c(C)c2c1CN(C(=O)CC1Cc3ccccc3C1)C2 [Example 24, 2-(2,3-dihydro-1H-inden-2-yl)-1-[6,7-dimethyl-4-(methylamino)-1,3-dihydro-2H-pyrrolo[3,4-c]pyridin-2-yl]ethanone]
102% | 12.1 nM | CNc1nc(C)c(C)c2c1CN(C(=O)CCc1ccc(C#N)cc1)C2 [Example 31, 4-{3-[6,7-dimethyl-4-(methylamino)-1,3-dihydro-2H-pyrrolo[3,4-c]pyridin-2-yl]-3-oxopropyl}benzonitrile]
119% | 24.7 nM | CNc1nc(C)c(C)c2c1CN(C(=O)CCc1ccc(OC)cc1)C2 [Example 32, 1-[6,7-dimethyl-4-(methylamino)-1,3-dihydro-2H-pyrrolo[3,4-c]pyridin-2-yl]-3-(4-methoxyphenyl)propan-1-one]
95.9% | 1.3 nM | CNc1nc(C)c(C)c2c1CN(C(=O)CC1CN(c3ccnc(C(F)(F)F)c3)C1)C2 [Example 34, 1-[6,7-dimethyl-4-(methylamino)-1,3-dihydro-2H-pyrrolo[3,4-c]pyridin-2-yl]-2-{1-[2-(trifluoromethyl)pyridin-4-yl]azetidin-3-yl}ethanone]
95.6% | 5.46 nM | CNc1nc(C)c(C)c2c1CN(C(=O)CC1CN(c3ccnc(C#N)c3)C1)C2 [Example 36, 4-(3-{2-[6,7-dimethyl-4-(methylamino)-1,3-dihydro-2H-pyrrolo[3,4-c]pyridin-2-yl]-2-oxoethyl}azetidin-1-yl)pyridine-2-carbonitrile]
93.5% | 3.47 nM | CNc1nc(C)c(C)c2c1CN(C(=O)CC1CN(c3nncs3)C1)C2 [Example 37, 1-[6,7-dimethyl-4-(methylamino)-1,3-dihydro-2H-pyrrolo[3,4-c]pyridin-2-yl]-2-[1-(1,3,4-thiadiazol-2-yl)azetidin-3-yl]ethanone]
102% | 13.8 nM | CNc1nc(C)c(C)c2c1CN(C(=O)CCc1cn[nH]c1)C2 [Example 38, 1-[6,7-dimethyl-4-(methylamino)-1,3-dihydro-2H-pyrrolo[3,4-c]pyridin-2-yl]-3-(1H-pyrazol-4-yl)propan-1-one]
97.7% | 3.26 nM | CNc1nc(C)c(C)c2c1CN(C(=O)CC1CN(c3ccc(F)nc3)C1)C2 [Example 51, 1-[6,7-dimethyl-4-(methylamino)-1,3-dihydro-2H-pyrrolo[3,4-c]pyridin-2-yl]-2-[1-(6-fluoropyridin-3-yl)azetidin-3-yl]ethanone]
95.8% | 153 nM | COCc1nc(C)c(C)c2c1CN(C(=O)CC1CN(c3cccnc3)C1)C2 [Example 54, 1-[4-(methoxymethyl)-6,7-dimethyl-1,3-dihydro-2H-pyrrolo[3,4-c]pyridin-2-yl]-2-[1-(pyridin-3-yl)azetidin-3-yl]ethanone]
109% | 150 nM | Cc1nc(OC(F)F)c2c(c1C)CN(C(=O)CC1CN(c3cncnc3)C1)C2 [Example 56, 1-[4-(difluoromethoxy)-6,7-dimethyl-1,3-dihydro-2H-pyrrolo[3,4-c]pyridin-2-yl]-2-[1-(pyrimidin-5-yl)azetidin-3-yl]ethanone]
